{
  "source": "paper PMC8639922",
  "about": "“KSHV transactivator-derived small peptide traps coactivators to attenuate MYC and inhibits leukemia and lymphoma cell growth” (Communications Biology, 2021)",
  "system": "MYC promoter and putative enhancer regions",
  "assay": "CUT&RUN qPCR, coactivator complex recruitment (PolII, BRD4, SMARCA4)",
  "type": "cell-based, human",
  "description": "We next examined the molecular mechanism of MYC down-regulation by VGN50. We first utilized Cleavage under targets & release using nuclease (CUT&RUN)-sequencing to examine histone modifications that are known to be associated with enhancers in order to map putative MYC enhancer regions in PEL cells (Fig. 5a). Genome-wide CUT&RUN studies identified putative enhancer and promoter regulatory regions that are marked by H3K27Ac, H3K4me1, POLR2A (RNAPII), BRD4, and SMARCC1, a component of the SWI/SNF complex (Fig. 1b and 5a). The identified putative MYC enhancers were also in good agreement with previous ChIP Hi-C[53] and ChIP-seq data sets[54]. Specific primer pairs were then designed to amplify the respective enhancer regions and to examine regulation of coactivator complex recruitment by VGN50.\nFig. 5 A molecular mechanism of VGN50-mediated MYC-down-regulation. a Cleavage under targets & release using nuclease (CUT&RUN). CUT&RUN was performed with BCBL-1 and BC-1 with the indicated antibodies. Enrichment of active histone modifications, and occupancies of RNAPII and SWI/SNF components at the MYC genomic region are shown as peaks. One of the biological duplicate samples for the BCBL-1 cell line is presented. […] The MYC promoter, enhancer, and negative control regions used for qPCR analyses are indicated with shading. The positions of the MYC coding region, CASC11 coding region, and long non-coding RNA, PVT1, MIR1208 are shown in the panel. b VGN50 inhibits coactivator complex recruitment and c reduces H3K27Ac modification. qPCR is used to examine enrichment of DNA fragments in the presence of VGN50 or mutant peptide (24 μM). Peptide was applied 1 h prior to processing samples for CUT&RUN to replicate SLAM-seq experimental conditions. Non-specific IgG control was also included and enrichment with IgG control at each genomic region was set as 1 for b, and spiked-in luciferase plasmid DNA was used for additional internal control for c. d Formation of a larger protein complex with VGN50. Sucrose gradient sedimentation was used to monitor changes in protein complex formation in the presence of VGN50. The experiment flow chart is shown at the top of this panel. Fractions were collected from top (#1) to bottom (#23/24). Sample #24 without peptide is a smaller fraction of residual samples. Immunoblotting was performed on the odd number samples and the remaining fraction (#24 for no peptide sample) and probed with Flag-tagged SWI/SNF components (SMARCA4, SMARCC2, and SMARCB1). The position of each protein component based on molecular size is indicated. e KSHV K-Rta colocalizes with SWI/SNF components in reactivating BCBL-1 cells. TREx-BCBL-1 cells were triggered for reactivation by treatment with Dox and TPA for 28 h and stained with the indicated antibodies. Images were acquired with Keyence fluorescence microscopy. f A model for VGN50 molecular action. A model depicting the putative molecular action of VGN50 is presented. Coactivator complexes are dynamically assembled on enhancer and promoter regions via transcription factor binding. VGN50, an IDR fragment derived from an exceptionally potent viral transactivator, flexibly interacts with components of coactivators and traps them, thus reduces the available resources for cellular enhancers to activate MYC promoters.\nCUT&RUN[72] was performed essentially by following the online protocol developed by Dr. Henikoff’s lab with a few modifications to fit our needs. Cells were washed with PBS and wash buffer [20 mM HEPES-KOH pH 7.5, 150 mM NaCl, 0.5 mM Spermidine (Sigma, S2626), and proteinase inhibitor (Roche)]. After removing the wash buffer, cells were captured on magnetic concanavalin A (ConA) beads (Polysciences, PA, USA) in the presence of CaCl2. […]",
  "key": {"[1]": {"settings": "MYC region E1, peptide 24 μM 1 h, IgG set as 1, replicate 1"}, "[2]": {"settings": "MYC region E1, peptide 24 μM 1 h, IgG set as 1, replicate 2"}, "[3]": {"settings": "MYC region E1, peptide 24 μM 1 h, IgG set as 1, replicate 3"}, "[4]": {"settings": "MYC region E2, peptide 24 μM 1 h, IgG set as 1, replicate 1"}, "[5]": {"settings": "MYC region E2, peptide 24 μM 1 h, IgG set as 1, replicate 2"}, "[6]": {"settings": "MYC region E2, peptide 24 μM 1 h, IgG set as 1, replicate 3"}, "[7]": {"settings": "MYC region E3, peptide 24 μM 1 h, IgG set as 1, replicate 1"}, "[8]": {"settings": "MYC region E3, peptide 24 μM 1 h, IgG set as 1, replicate 2"}, "[9]": {"settings": "MYC region E3, peptide 24 μM 1 h, IgG set as 1, replicate 3"}, "[10]": {"settings": "MYC region P1, peptide 24 μM 1 h, IgG set as 1, replicate 1"}, "[11]": {"settings": "MYC region P1, peptide 24 μM 1 h, IgG set as 1, replicate 2"}, "[12]": {"settings": "MYC region P1, peptide 24 μM 1 h, IgG set as 1, replicate 3"}, "[13]": {"settings": "Myc Control region, peptide 24 μM 1 h, IgG set as 1, replicate 1"}, "[14]": {"settings": "Myc Control region, peptide 24 μM 1 h, IgG set as 1, replicate 2"}, "[15]": {"settings": "Myc Control region, peptide 24 μM 1 h, IgG set as 1, replicate 3"}},
  "note": "Square brackets hold non-standard residues; d marks the D form. Peptide text beside a SMILES is read from it. Orn = NCCC[C@H](N)C(=O)O; βAla = NCCC(=O)O",
  "data": [
    {"smiles": "CC(C)C[C@H](NC(=O)CCNC(=O)[C@H](CCCNC(=N)N)NC(=O)[C@H](CCCNC(=N)N)NC(=O)[C@H](CCCNC(=N)N)NC(=O)[C@H](CCCN)NC(=O)[C@H](CCCNC(=N)N)NC(=O)[C@H](CCCNC(=N)N)NC(=O)[C@H](CCCCN)NC(=O)[C@H](CCCCN)NC(=O)[C@H](N)CCCNC(=N)N)C(=O)N[C@@H](CO)C(=O)N[C@@H](CO)C(=O)N[C@@H](C)C(=O)N[C@@H](C)C(=O)N[C@@H](C)C(=O)NCC(=O)N[C@@H](CC(C)C)C(=O)N[C@@H](Cc1ccc(O)cc1)C(=O)N[C@@H](CCC(N)=O)C(=O)N[C@@H](CC(C)C)C(=O)N[C@@H](CC(=O)O)C(=O)N[C@H](C(=O)O)[C@@H](C)O", "note": "[Mt-P] (H-[dR]KKRR[Orn]RRR[βAla]LSSAAAGLYQLDT-OH; N-terminus and C-terminus assumed)", "values": [
      {"measurement": "BRD4 enrichment, CUT&RUN qPCR", "setting": "[1]", "result": 3.57},
      {"measurement": "PolII enrichment, CUT&RUN qPCR", "setting": "[1]", "result": 2.89},
      {"measurement": "SMARCA4 enrichment, CUT&RUN qPCR", "setting": "[1]", "result": 1.44},
      {"measurement": "BRD4 enrichment, CUT&RUN qPCR", "setting": "[2]", "result": 3.47},
      {"measurement": "PolII enrichment, CUT&RUN qPCR", "setting": "[2]", "result": 2.18},
      {"measurement": "SMARCA4 enrichment, CUT&RUN qPCR", "setting": "[2]", "result": 1.11},
      {"measurement": "BRD4 enrichment, CUT&RUN qPCR", "setting": "[3]", "result": 3.30},
      {"measurement": "PolII enrichment, CUT&RUN qPCR", "setting": "[3]", "result": 2.41},
      {"measurement": "SMARCA4 enrichment, CUT&RUN qPCR", "setting": "[3]", "result": 1.32},
      {"measurement": "BRD4 enrichment, CUT&RUN qPCR", "setting": "[4]", "result": 6.92},
      {"measurement": "PolII enrichment, CUT&RUN qPCR", "setting": "[4]", "result": 9.68},
      {"measurement": "SMARCA4 enrichment, CUT&RUN qPCR", "setting": "[4]", "result": 2.57},
      {"measurement": "BRD4 enrichment, CUT&RUN qPCR", "setting": "[5]", "result": 6.75},
      {"measurement": "PolII enrichment, CUT&RUN qPCR", "setting": "[5]", "result": 10.09},
      {"measurement": "SMARCA4 enrichment, CUT&RUN qPCR", "setting": "[5]", "result": 2.47},
      {"measurement": "BRD4 enrichment, CUT&RUN qPCR", "setting": "[6]", "result": 7.28},
      {"measurement": "PolII enrichment, CUT&RUN qPCR", "setting": "[6]", "result": 9.27},
      {"measurement": "SMARCA4 enrichment, CUT&RUN qPCR", "setting": "[6]", "result": 2.05},
      {"measurement": "BRD4 enrichment, CUT&RUN qPCR", "setting": "[7]", "result": 7.28},
      {"measurement": "PolII enrichment, CUT&RUN qPCR", "setting": "[7]", "result": 10.61},
      {"measurement": "SMARCA4 enrichment, CUT&RUN qPCR", "setting": "[7]", "result": 2.01},
      {"measurement": "BRD4 enrichment, CUT&RUN qPCR", "setting": "[8]", "result": 6.68},
      {"measurement": "PolII enrichment, CUT&RUN qPCR", "setting": "[8]", "result": 9.91},
      {"measurement": "SMARCA4 enrichment, CUT&RUN qPCR", "setting": "[8]", "result": 2.39},
      {"measurement": "BRD4 enrichment, CUT&RUN qPCR", "setting": "[9]", "result": 7.58},
      {"measurement": "PolII enrichment, CUT&RUN qPCR", "setting": "[9]", "result": 10.57},
      {"measurement": "SMARCA4 enrichment, CUT&RUN qPCR", "setting": "[9]", "result": 1.42},
      {"measurement": "BRD4 enrichment, CUT&RUN qPCR", "setting": "[10]", "result": 8.00},
      {"measurement": "PolII enrichment, CUT&RUN qPCR", "setting": "[10]", "result": 18.06},
      {"measurement": "SMARCA4 enrichment, CUT&RUN qPCR", "setting": "[10]", "result": 2.48},
      {"measurement": "BRD4 enrichment, CUT&RUN qPCR", "setting": "[11]", "result": 8.20},
      {"measurement": "PolII enrichment, CUT&RUN qPCR", "setting": "[11]", "result": 18.31},
      {"measurement": "SMARCA4 enrichment, CUT&RUN qPCR", "setting": "[11]", "result": 2.51},
      {"measurement": "BRD4 enrichment, CUT&RUN qPCR", "setting": "[12]", "result": 7.99},
      {"measurement": "PolII enrichment, CUT&RUN qPCR", "setting": "[12]", "result": 17.86},
      {"measurement": "SMARCA4 enrichment, CUT&RUN qPCR", "setting": "[12]", "result": 2.36},
      {"measurement": "BRD4 enrichment, CUT&RUN qPCR", "setting": "[13]", "result": 2.07},
      {"measurement": "PolII enrichment, CUT&RUN qPCR", "setting": "[13]", "result": 2.07},
      {"measurement": "SMARCA4 enrichment, CUT&RUN qPCR", "setting": "[13]", "result": 1.30},
      {"measurement": "BRD4 enrichment, CUT&RUN qPCR", "setting": "[14]", "result": 1.88},
      {"measurement": "PolII enrichment, CUT&RUN qPCR", "setting": "[14]", "result": 1.88},
      {"measurement": "SMARCA4 enrichment, CUT&RUN qPCR", "setting": "[14]", "result": 1.17},
      {"measurement": "BRD4 enrichment, CUT&RUN qPCR", "setting": "[15]", "result": 1.71},
      {"measurement": "PolII enrichment, CUT&RUN qPCR", "setting": "[15]", "result": 1.71},
      {"measurement": "SMARCA4 enrichment, CUT&RUN qPCR", "setting": "[15]", "result": 1.15}
    ]}
  ]
}
